For six molecules, Km and inhibition results are on record in publication PMC4674796, “Only a minority of broad-range detoxification genes respond to a variety of phytotoxins in generalist Bemisia tabaci species” (Scientific Reports, 2015).

The first test concerns the target T1, BtGST2 (Bemisia tabaci, UniProt A0A9P0F9D9).
T1 construct: gene BEMITA_LOCUS12014
T1 sequence (A0A9P0F9D9 1-204): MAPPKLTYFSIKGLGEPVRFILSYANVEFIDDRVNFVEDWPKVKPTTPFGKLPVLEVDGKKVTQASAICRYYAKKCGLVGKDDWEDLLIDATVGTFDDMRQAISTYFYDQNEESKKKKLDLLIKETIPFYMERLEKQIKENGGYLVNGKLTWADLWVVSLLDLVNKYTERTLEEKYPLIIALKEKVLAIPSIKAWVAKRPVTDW
As to the kind of experiment: GSH/CDNB conjugation, absorbance at […] nm, Michaelis-Menten fit. Type of test: biochemical. The note with it: co-substrate GSH 2.75 mM, CDNB 0.06-3 mM; 0.1 M potassium phosphate pH 6.5, 25 °C.
A word on the Km: it is the substrate concentration at which the rate is half of its maximum. Take `O=[N+]([O-])c1ccc(Cl)c([N+](=O)[O-])c1` [CDNB, 1-Chloro-2,4-dinitrobenzene]: the Km was found to be 710 ± 160 µM.

Another test concerns the target T1, BtGST2. As to the kind of experiment: inhibition of CDNB/GSH conjugation, absorbance at […] nm. Type of test: biochemical. The note with it: read-out: % inhibition at 0.5 mM.
Usually inhibition stands for how much of the control response was suppressed. In the case of `C=CCN=C=S` [AITC], the inhibition at 500 µM turned out to be 40.9 ± 5.08%.

As to `CN1CCC[C@H]1c1cccnc1` [Nicotine], the inhibition at 500 µM amounted to 6.64 ± 3.68%.

For `O=c1c(O)c(-c2ccc(O)c(O)c2)oc2cc(O)cc(O)c12` [Quercetin hydrate], the inhibition at 500 µM worked out at 97.6 ± 2.43%.

`OCc1c[nH]c2ccccc12` [I3C]: the inhibition at 500 µM amounted to 20.9 ± 7.99%.

As for `O=c1cc(-c2ccccc2)oc2ccccc12` [Flavone, 2-phenyl chromone], the inhibition at 500 µM is 67.3 ± 8.65%.
